According to patent US20230247992A1, “ARTHROPOD CONTROL COMPOSITION” (Firmenich SA, priority 2020, published 2023):

Key:
Aedes aegypti [1] = test: in vitro Warm Body assay, substance introduced in the cage air by forced evaporation (spatial repellence); type: in vivo
Description: (§1) The controlling effect, repellence & spatial repellence, according to the present invention is determined by testing the Warm Body assay against the yellow fever mosquito, Aedes aegypti Rockefeller strain. […] Observations of controlling efficacy were made on host-seeking females of uniform age, 5 to 10 days old selected as mentioned in the publication mentioned hereinabove. Tested hungry females had access to 10% sugar solution but were not blood-fed. Further information is provided in the accompanying examples.
(§2) The published protocol has been adapted in not manually counting the landing mosquitoes but automatically using an automatic counting software, the switch from Anopheles gambiae to A. aegypti led to a decrease of mosquitoes’ number placed in the tested cage due to the size difference (i.e. 30 mosquitoes instead of 50) and to an increase of lighting as A. aegypti is a diurnal mosquitoes (i.e. 150 lux instead of 4 lux). Further information is provided in the accompanying examples.,
(§3) The controlling effect of the compositions according to the present invention was assessed using an adapted Warm Body assay as defined in Kröber T, Kessler S, Frei J, Bourquin M, Guerin PM. 2010. An in vitro assay for testing mosquito controlling compounds employing a warm body and carbon dioxide as a behavioral activator. J Am Mosq Control Assoc. 26:381-386. In this in-vitro assay the number of mosquito landing on a warm body, simulating an attractive host treated with the tested stimuli, was measured in order to assess the repellence effect.
as §2, with “to Aedes” for “to A.”, “lux).” for “lux). Further information is provided in the accompanying examples.,”
(§4) In addition, since the inventors were interested by assessing spatial repellence added or not to a deterrent effect, the substance was applied using two different technics. Whether, as in Kröber et al. (2010), both deterrent and repellent effect were investigated (i.e. similar effect than most body care applications such as lotion) and the substances was applied on a sandblasted glass Petri dish placed on top of the warm body. Whether only the spatial repellence was investigated (i.e. similar effect than most home care applications such as liquid electric dispenser) and the substance was introduced in the cage space thanks to a forced evaporation system as described in Chappuis C J-F, Niclass Y, Vuilleumier C, Starkenmann C. 2015. Quantitative Headspace Analysis of Selected Odorants from Latrines in Africa and India. Environ. Sci. Technol. 49:6134-6140.
(§5) As stated in Kröber et al. (2010), selected 10-12 days old hungry females, that had ad libitum access to 10% sugar solution but were not blood-fed, were selected for the assay.
The forced evaporation system allows to fill the volume of the cage with stimuli tested, (2-methyl-4-oxo-3-prop-2-ynylcyclopent-2-en-1-yl) 2,2-dimethyl-3-(2-methylprop-1-enyl)cyclopropane-1-carboxylate (prallethrin) and N,N-diethyl-3-methylbenzamide (DEET) being used as benchmarks. In order to limit potential dead volumes in the cage, five flushes of the cage were made before starting the 2 minutes test during which the number of mosquito landings was counted.

Aedes aegypti [2] = test: in vitro Warm Body assay, substance applied on glass Petri dish on top of the warm body (deterrence and repellence); type: in vivo
Description: as §1, §2, §3
as §2, with “to Aedes” for “to A.”, “lux).” for “lux). Further information is provided in the accompanying examples.,”
as §4, §5
On the sandblasted glass Petri dish covering the warm body (28.3 cm^2), 100 µL of the substances diluted at different concentrations in ethanol was applied. The number of mosquito landing on the warm body was counted for each stimuli, N,N-diethyl-3-methylbenzamide (DEET) and ethyl 3-[acetyl(butyl)amino]propanoate (IR3535) being used as benchmarks and pure ethanol as control.

[3] = 0.0017 µg/L air, without substance 54.1±4.9
[4] = 0.0017 µg/L air, without substance 54.7±3.2
[5] = 0.0017 µg/L air, without substance 56.0±3.6
[6] = 0.017 µg/L air, without substance 54.1±4.9
[7] = 0.017 µg/L air, without substance 54.7±3.2
[8] = 0.017 µg/L air, without substance 56.0±3.6
[9] = 0.17 µg/L air, without substance 54.1±4.9
[10] = 0.17 µg/L air, without substance 54.7±3.2
[11] = 0.17 µg/L air, without substance 56.0±3.6
[12] = 1.7 µg/L air, without substance 54.1±4.9
[13] = 1.7 µg/L air, without substance 54.7±3.2
[14] = 1.7 µg/L air, without substance 56.0±3.6
[15] = 17 µg/L air, without substance 54.1±4.9
[16] = 17 µg/L air, without substance 54.7±3.2
[17] = 17 µg/L air, without substance 56.0±3.6
[18] = 0.04% in ethanol, ethanol control 67.0±8.8 landings
[19] = 1% in ethanol, ethanol control 67.0±8.8 landings
[20] = […] in ethanol, ethanol control 67.0±8.8 landings
[21] = 0.04% in ethanol, ethanol control 67.1±9.1 landings
[22] = 1% in ethanol, ethanol control 67.1±9.1 landings
[23] = […] in ethanol, ethanol control 67.1±9.1 landings

SMILES	number of mosquitoes landing within 2 minutes on the warm body, air in the cage saturated with stimulus (Aedes aegypti [1]; [3])	number of mosquitoes landing within 2 minutes on the warm body, air in the cage saturated with stimulus (Aedes aegypti [1]; [5])	number of mosquitoes landing within 2 minutes on the warm body, air in the cage saturated with stimulus (Aedes aegypti [1]; [6])	number of mosquitoes landing within 2 minutes on the warm body, air in the cage saturated with stimulus (Aedes aegypti [1]; [8])	number of mosquitoes landing within 2 minutes on the warm body, air in the cage saturated with stimulus (Aedes aegypti [1]; [9])	number of mosquitoes landing within 2 minutes on the warm body, air in the cage saturated with stimulus (Aedes aegypti [1]; [11])	number of mosquitoes landing within 2 minutes on the warm body, air in the cage saturated with stimulus (Aedes aegypti [1]; [12])	number of mosquitoes landing within 2 minutes on the warm body, air in the cage saturated with stimulus (Aedes aegypti [1]; [14])	number of mosquitoes landing within 2 minutes on the warm body, air in the cage saturated with stimulus (Aedes aegypti [1]; [15])	number of mosquitoes landing within 2 minutes on the warm body, air in the cage saturated with stimulus (Aedes aegypti [1]; [17])	number of mosquitoes landing within 2 minutes on the warm body (Aedes aegypti [2]; [18])	number of mosquitoes landing within 2 minutes on the warm body (Aedes aegypti [2]; [19])	number of mosquitoes landing within 2 minutes on the warm body (Aedes aegypti [2]; [20])	number of mosquitoes landing within 2 minutes on the warm body (Aedes aegypti [2]; [21])	number of mosquitoes landing within 2 minutes on the warm body (Aedes aegypti [2]; [22])	number of mosquitoes landing within 2 minutes on the warm body (Aedes aegypti [2]; [23])	other results
C#CCC1=C(C)C(OC(=O)C2C(C=C(C)C)C2(C)C)CC1=O (stereo not drawn) [prallethrin, (2-methyl-4-oxo-3-prop-2-ynylcyclopent-2-en-1-yl) 2,2-dimethyl-3-(2-methylprop-1-enyl)cyclopropane-1-carboxylate, reference compound]	77.0	77.0	66.0	66.0	15.5	15.5	3.0	3.0	1.0	1.0							number of mosquitoes landing within 2 minutes on the warm body, air in the cage saturated with stimulus (Aedes aegypti [1]; [4]): 77.0; number of mosquitoes landing within 2 minutes on the warm body, air in the cage saturated with stimulus (Aedes aegypti [1]; [7]): 66.0; number of mosquitoes landing within 2 minutes on the warm body, air in the cage saturated with stimulus (Aedes aegypti [1]; [10]): 15.5; number of mosquitoes landing within 2 minutes on the warm body, air in the cage saturated with stimulus (Aedes aegypti [1]; [13]): 3.0; number of mosquitoes landing within 2 minutes on the warm body, air in the cage saturated with stimulus (Aedes aegypti [1]; [16]): 1.0
CCC=CCC1C(=O)CCC1CC(=O)OC (stereo not drawn) [methyl 2-(3-oxo-2-pent-2-enylcyclopentyl)acetate]			10.0		4.0		15.0				2.0	1.0	54.0				
OCCc1ccccc1 [2-phenylethanol]	12.0		30.0		25.0		51.0		30.0		46.0	0.0	72.0				landing decrease (Aedes aegypti [1]; highest dose tested): 41%
COC(C)(C)[C@H]1CC=C(C)CC1 [(4R)-4-(2-methoxypropan-2-yl)-1-methylcyclohexene]											18.0	3.0	52.0				landings per minute (Aedes aegypti [2]; concentration of 0.04%): ~ 10 landings per minute
CC(=O)OC1CC(C)CCC1C(C)C (stereo not drawn) [5-methyl-2-propan-2-ylcyclohexyl] acetate]		31.5		24.0		17.5		9.0		25.0				16.0	10.0	22.0	
CC1=CC[C@@H]2[C@H](C1)C2(C)C [(1S,6R)-3,7,7-trimethylbicyclo[4.1.0]hept-3-ene]											55.0	8.0	59.0				
CCN(CC)C(=O)c1cccc(C)c1 [N,N-diethyl-3-methylbenzamide, reference compound]	35.0	35.0	28.0	28.0	24.0	24.0	1.5	1.5	3.0	3.0	5.1	2.6	44.9	5.1	2.6	44.9	number of mosquitoes landing within 2 minutes on the warm body, air in the cage saturated with stimulus (Aedes aegypti [1]; [4]): 35.0; number of mosquitoes landing within 2 minutes on the warm body, air in the cage saturated with stimulus (Aedes aegypti [1]; [7]): 28.0; number of mosquitoes landing within 2 minutes on the warm body, air in the cage saturated with stimulus (Aedes aegypti [1]; [10]): 24.0; number of mosquitoes landing within 2 minutes on the warm body, air in the cage saturated with stimulus (Aedes aegypti [1]; [13]): 1.5; number of mosquitoes landing within 2 minutes on the warm body, air in the cage saturated with stimulus (Aedes aegypti [1]; [16]): 3.0; number of mosquitoes landing within 2 minutes on the warm body (Aedes aegypti [2]; 0.04% in ethanol, ethanol control 59.3±6.9 landings): 5.1; number of mosquitoes landing within 2 minutes on the warm body (Aedes aegypti [2]; 1% in ethanol, ethanol control 59.3±6.9 landings): 2.6; number of mosquitoes landing within 2 minutes on the warm body (Aedes aegypti [2]; […] in ethanol, ethanol control 59.3±6.9 landings): 44.9
COc1ccc(COC(C)=O)cc1 [(4-methoxyphenyl)methyl acetate]	18.0		26.5		34.5		28.0				27.0	9.0	59.0				
CC(C)C(=O)OCCc1ccccc1 [2-phenylethyl 2-methylpropanoate]											55.0	2.0	90.0				
CCCCCCC1CCCC(=O)O1 (stereo not drawn) [6-hexyloxan-2-one]		31.0		28.0		4.0				5.0				13.0	5.0	74.0	landings in 2 minutes (Aedes aegypti [1]; dose of 0.17 µg/L of air): less than five
